Reference: patent publication US10858321B2, “Composition for inducing cell reprogramming” (GWANGJU INSTITUTE OF SCIENCE AND TECHNOLOGY, priority 2014, dated 2020)

Experiments:
C2C12 myoblasts = assay: MTT assay (cytotoxicity); assay type: cell-based, mouse; settings: for IC50: C2C12 myoblasts, incubated 2 days with compound; for cytotoxicity: result in words, comparison with the indazole derivatives
Protocol: C2C12 myoblasts were seeded in a 96-well plate at a density of 3×10^3 cells per well. The cells were cultured for one day, and then treated with each compound. Next, the cells were incubated for 2 days, and then treated with a serum-free medium containing 3-(4,5-dimethylthiazol-2-yl)-2,5-diphenyltetrazolium bromide (MTT) for 3 hours. After removal of the medium, the cells were incubated in DMSO for 10 minutes while they were shaken. The absorbance at 570 nm was measured by a microreader (VersaMax, Molecular Devices) (see FIG. 4).

[1] = system: C2C12 mouse skeletal myoblasts; assay: Cell screening by Alizarin red staining (direct reprogramming of myoblasts into osteoblasts); assay type: cell-based; set-up: key to Alizarin red staining (osteoblasts): ++ (strong positive); + (weak positive); − (negative); settings: for reprogramming potential in differentiation into osteoblasts: Alizarin red staining, result in words; for Alizarin red staining (osteoblasts): C2C12 myoblasts treated 72 hours with compound, then osteogenic differentiation inducing medium 14 days, reversine 100 nM
Protocol: A method for identifying compounds that induce cell reprogramming was based on a previous study (PMID: 23044010 and 18974773) on the myocyte-to-osteocyte conversion by bone formation induction and a previous reversine publication (Chen S 2004).
C2C12 mouse skeletal myoblasts were seeded in a 24-well cell culture dish at a density of 1×10^4 cells per well. 24 Hours after seeding, the compound of interest was added to three well at a concentration of […]. For a positive control, the cells were treated with 100 nM reversine or 2 μM BIO. The two compounds are known to induce the conversion of myoblasts to […] (Chen S 2004 and Kim WH recapitulate papers). For a negative control, the cells were untreated or treated with DMSO. The cells were treated with each compound for a total of 72 hours, and were further treated with each compound after 48 hours. The cytotoxicity of each compound could be confirmed from disappearance of a portion of the cells and from floating cell debris during culture, and a compound causing cytotoxicity was screened again at a concentration of 250 nM. After 72 hours, the medium was replaced with an osteogenic differentiation inducing medium (treated for 14 days with a DMEM supplemented with 10% FBS, […] ascorbic acid-2-phosphate, 0.1 μM dexamethasone, 10 mM β-glycerophosphate, 50 units/mL of penicillin, and […] streptomycin). The osteogenic differentiation inducing medium was based on one previously described in direct cell reprogramming (reversine papers, Chen S 2004 and Chen S 200/). Direct cell reprogramming from myocytes to osteocytes was analyzed by Alizarin red staining that detects calcium deposits (Gregory CA 2004 PMID: 15136169) in bone lineage cells.
Cells were washed once with PBS, and then fixed with phosphate-buffered formalin for 20 minutes. The fixed cells were washed with distilled water, and immersed in a solution of 1% Alizarin red-S in water for 5 minutes. The remaining dye was washed out with distilled water. The cells were dried, and then imaged with an optical microscope (CKX41 Olympus). The stained cells did look red, and a compound corresponding to such cells was selected as a ‘hit’ compound and further analyzed.

Aurora A = molecular target: T1, Aurora A (Homo sapiens, UniProt O14965); assay: HTRF kinase assay, Aurora A; assay type: biochemical; settings: 1 μM compound
T1 construct: purchased Millipore (Billerica, Mass.)
T1 sequence (O14965 1-403): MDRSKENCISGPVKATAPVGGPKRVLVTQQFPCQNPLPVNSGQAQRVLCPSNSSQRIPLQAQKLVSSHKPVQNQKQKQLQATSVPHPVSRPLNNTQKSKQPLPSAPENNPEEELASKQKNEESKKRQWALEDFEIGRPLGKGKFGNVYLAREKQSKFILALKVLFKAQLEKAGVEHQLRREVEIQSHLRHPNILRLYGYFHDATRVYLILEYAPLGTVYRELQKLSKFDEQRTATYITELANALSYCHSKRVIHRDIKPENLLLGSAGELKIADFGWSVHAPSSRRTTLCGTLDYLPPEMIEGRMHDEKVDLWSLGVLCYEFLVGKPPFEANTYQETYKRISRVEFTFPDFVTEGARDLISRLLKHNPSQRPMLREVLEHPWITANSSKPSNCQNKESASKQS
Protocol: (§1) The inhibitory activities of indazole derivatives against GSK-3 β and Aurora A were analyzed by HTRF (homogeneous time-resolved fluorescence) assay. The HTRF assay is an assay method that detects the phosphorylation of peptide substances in the presence of ATP. Phosphorylated substances were detected by TR-FRET (Time Resolved-Fluorescence Resonance) signals. Recombinant GSK-3 β and Aurora A kinase were purchased from Millipore (Billerica, Mass.). Using a HTRF KinEASE kit (Cisbio), the assay was performed. Each of GSK-3 β and Aurora A was treated with 1 μM of each indazole compound, and the degree of inhibition of phosphorylation was analyzed. The assay was composed of a compound-enzyme mixture and peptide substance dissolved in kinase reaction buffer (250 mM HEPES (pH 7.0), 0.5 mM orthovanadate, 0.05% BSA, 0.1% NaN3). After addition of detection buffer, the TR-FRET signal was detected by an EnVision multi-label reader.

GSK-3β = molecular target: T2, GSK-3β (Homo sapiens, UniProt P49841); assay: HTRF kinase assay, GSK-3β; assay type: biochemical; settings: 1 μM compound
T2 construct: purchased Millipore (Billerica, Mass.)
Protocol: as §1

adipocytes = assay: Oil red O staining (differentiation into adipocytes); assay type: cell-based; set-up: key to Oil red O staining (adipocytes): ++ (strong positive); + (weak positive); − (negative); settings: for reprogramming potential in differentiation into adipocytes: oil red O staining, result in words

T2 sequence (P49841 whole entry, species assumed): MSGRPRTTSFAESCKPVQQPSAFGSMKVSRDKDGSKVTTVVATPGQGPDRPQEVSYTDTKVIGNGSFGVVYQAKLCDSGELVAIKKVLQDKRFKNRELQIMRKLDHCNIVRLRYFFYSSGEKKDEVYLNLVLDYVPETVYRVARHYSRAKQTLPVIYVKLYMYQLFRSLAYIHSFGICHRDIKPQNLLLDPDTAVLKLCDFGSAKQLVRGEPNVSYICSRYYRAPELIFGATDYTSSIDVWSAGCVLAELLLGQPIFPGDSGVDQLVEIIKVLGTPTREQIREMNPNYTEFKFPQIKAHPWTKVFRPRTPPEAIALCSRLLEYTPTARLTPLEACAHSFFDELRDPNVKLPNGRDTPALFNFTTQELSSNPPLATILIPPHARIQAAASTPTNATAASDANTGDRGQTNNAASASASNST

O=C(c1ccc2[nH]nc(NC(=NO)c3ccccc3)c2c1)N1CCCCC1 [LDD-1945, N′-hydoxy-N-(5-(piperidine-1-carbonyl)-111-indazol-3-yl)benzimidamide] was tested, and the IC50 (C2C12 myoblasts) was greater than 10 µM, the “reprogramming potential in differentiation into osteoblasts” value [1] was “strong reprogramming potential” and the “Alizarin red staining (osteoblasts)” value [1] was “++”.
O=C(c1ccc2[nH]nc(C(=NO)Nc3ccccc3)c2c1)N1CCCCC1 [LDD-1821, N′-hydroxy-N-phenyl-5-(piperidine-1-carbonyl)-1H-indazole-3-carboxamide] was tested, and the “% Inhibition at 1 μM concentration, Aurora-A” value (shortened to “% Inhibition … Aurora-A”) (Aurora A; 1 µM) was “no inhibitory activity”, the “% Inhibition … Aurora-A” value (Aurora A; listed as LDD1821, 1 µM) was 0% and the “% Inhibition at 1 μM concentration, GSK-3β” value (“% Inhibition … GSK-3β” for short) (GSK-3β; 1 µM) was “no inhibitory activity”. For the same molecule, the “% Inhibition … GSK-3β” value (GSK-3β; listed as LDD1821, 1 µM) was 0.2%, the “Oil red O staining (adipocytes)” value (adipocytes) was “++” and the “reprogramming potential in differentiation into adipocytes” value (adipocytes) was “strong reprogramming potential”. The IC50 (C2C12 myoblasts) was greater than 10 µM, the “reprogramming potential in differentiation into osteoblasts” value [1] was “strong reprogramming potential” and the “Alizarin red staining (osteoblasts)” value [1] was “++”.
For O=C1Nc2cc(Br)ccc2/C1=C1/Nc2ccccc2/C1=N\O [BIO, reference compound], the cytotoxicity (C2C12 myoblasts) was “high cytotoxicity”.
COc1ccc(NC(=NO)c2n[nH]c3ccc(C(=O)N4CCCCC4)cc23)cc1 [LDD-2200, N′-hydroxy-N-(4-methoxyphenyl)-5-(piperidine-1-carbonyl)-1H-indazole-3-carboxamide] was tested, and the IC50 (C2C12 myoblasts) was greater than 10 µM, the “reprogramming potential in differentiation into osteoblasts” value [1] was “strong reprogramming potential” and the “Alizarin red staining (osteoblasts)” value [1] was “++”.
For O=C(O)c1ccc2[nH]nc(C(=NO)Nc3ccccc3)c2c1 [LDD-1986, 3-(N′-hydroxy-N-phenylcarbamimidoyl)-1H-indazole-5-carboxylic Acid], the “Oil red O staining (adipocytes)” value (adipocytes) was “++”, the “reprogramming potential in differentiation into adipocytes” value (adipocytes) was “strong reprogramming potential” and the IC50 (C2C12 myoblasts; Mus musculus, 48 h) was greater than 10 µM. The “Alizarin red staining (osteoblasts)” value [1] was “+”.
With O=C(Nc1n[nH]c2ccc([N+](=O)[O-])cc12)c1ccccc1 [LDD-1664, N-(5-nitro-1(2)H-indazol-3-yl)-benzamide] the “% Inhibition … Aurora-A” value (Aurora A) was 0%, the “% Inhibition … GSK-3β” value (GSK-3β) was 6.5% and the “reprogramming potential in differentiation into osteoblasts” value [1] was “strong reprogramming potential”. The “Alizarin red staining (osteoblasts)” value [1] was “++”.
O=C(Nc1n[nH]c2ccc(C(=O)N3CCCCC3)cc12)c1ccccc1 [LDD-1820, N-(5-(piperidine-1-carbonyl)-1H-indazol-3-yl)benzamide] was tested, and the inhibition at 1 µM (Aurora A; read-out: % Inhibition at 1 μM concentration, Aurora-A) was 32.5%, the inhibition at 1 µM (GSK-3β; read-out: % Inhibition at 1 μM concentration, GSK-3β) was 0.5% and the “Alizarin red staining (osteoblasts)” value [1] was “−”.
COc1ccc(NC(=NO)c2n[nH]c3ccc(C(=O)O)cc23)cc1 [LDD-2198, 3-(N′-hydroxy-N-(4-methoxyphenyl)carbaminidoyl)-1H-indazole-5-carboxylic Acid] gave an IC50 (C2C12 myoblasts) greater than 10 µM.
Work on O=C(O)c1ccc2[nH]nc(C(=NO)Nc3ccc(F)cc3)c2c1 [LDD-2197, 3-N-(4-fluorophenyl)-N′-hydroxycarbamimidoyl-1H-indazole-5-carboxylic Acid] yielded an IC50 (C2C12 myoblasts) greater than 10 µM.
With CCCN1CCN(C(=O)c2ccc3[nH]nc(C(=NO)Nc4ccccc4)c3c2)CC1 [LDD-1987, N′-hydroxy-N-phenyl-5-(4-propylpiperazine-1-carbonyl)-1H-indazole-3-carboxamide] the “Oil red O staining (adipocytes)” value (adipocytes) was “++”, the “reprogramming potential in differentiation into adipocytes” value (adipocytes) was “strong reprogramming potential” and the IC50 (C2C12 myoblasts) was greater than 10 µM. For the same molecule, the “Alizarin red staining (osteoblasts)” value [1] was “+”.
In the case of COCCN1CCN(C(=O)c2ccc3[nH]nc(C(=NO)Nc4ccccc4)c3c2)CC1 [LDD-1988, N′-hydroxy-5-(4-(2-methoxyethyl)piperazine-1-carbonyl)-N-phenyl-1H-indazole 3-carboximidamide], the “Oil red O staining (adipocytes)” value (adipocytes) is reported as “++”, the “reprogramming potential in differentiation into adipocytes” value (adipocytes) is reported as “strong reprogramming potential” and the IC50 (C2C12 myoblasts; Mus musculus, 48 h) is reported as greater than 10 µM. The “Alizarin red staining (osteoblasts)” value [1] was “+”.
COC(=O)c1ccc2[nH]nc(NC(=NO)c3ccccc3)c2c1 [LDD-2195, Methyl-3-(N′-hydroxybenzimidamido)-1H-indazole-5-carboxylate] gave an IC50 (C2C12 myoblasts; Mus musculus, 48 h) greater than 10 µM.
In the case of O=[N+]([O-])c1ccc2[nH]nc(NS(=O)(=O)c3ccccc3)c2c1 [LDD-1667, N-(5-nitro-111-indazol-3-yl)benzenesulfonamide], the “% Inhibition … Aurora-A” value (Aurora A) is reported as 0%, the “% Inhibition … GSK-3β” value (GSK-3β) is reported as 0% and the “Alizarin red staining (osteoblasts)” value [1] is reported as “−”.
COC(=O)c1ccc2[nH]nc(C(=NO)Nc3ccccc3)c2c1 [LDD-2196, Methyl-3-(N′-hydroxy-N-phenylcarbamimidoyl)-1H-indazole-5-carboxylate] gave an IC50 (C2C12 myoblasts; Mus musculus, 48 h) greater than 10 µM.
For c1nc2nc(Nc3ccc(N4CCOCC4)cc3)nc(NC3CCCCC3)c2[nH]1 [Reversine, reference compound], the “Oil red O staining (adipocytes)” value (adipocytes) was “++”, the cytotoxicity (C2C12 myoblasts) was “high cytotoxicity” and the “reprogramming potential in differentiation into osteoblasts” value [1] was “strong reprogramming potential”. The “Alizarin red staining (osteoblasts)” value [1] was “++”.
With O=C(c1ccc2[nH]nc(C(=NO)Nc3ccc(F)cc3)c2c1)N1CCCCC1 [LDD-2199, N-(4-fluorophenyl)-N′-hydroxy-5-(piperidine-1-carbonyl)-1H-indazole-3-carboxamide] the IC50 (C2C12 myoblasts) was greater than 10 µM, the “reprogramming potential in differentiation into osteoblasts” value [1] was “strong reprogramming potential” and the “Alizarin red staining (osteoblasts)” value [1] was “++”.
With O=C(O)c1ccc2[nH]nc(NC(=NO)c3ccccc3)c2c1 [LDD-2194, 3-(N′-hydroxybenzimidamido)-1H-indazole-5-carboxylic Acid] the IC50 (C2C12 myoblasts; Mus musculus, 48 h) was greater than 10 µM.
